Tested on: MV-4-11 cells
Assay: Gene expression microarray analysis (Affymetrix PrimeView) and GSEA
Type: cell-based, human
Parameters: RFU PODN (11730768_x_at) / Fold change /veh PODN (11730768_x_at) / RFU LINC00158 (11744669_a_at) / Fold change /veh LINC00158 (11744669_a_at) / RFU DUSP10 (11751237_a_at) / Fold change /veh DUSP10 (11751237_a_at) / RFU ID3 (11757404_x_at) / Fold change /veh ID3 (11757404_x_at) / RFU PLEKHG5 (11737974_s_at) / Fold change /veh PLEKHG5 (11737974_s_at) / RFU LRRC4B (11730491_at) / Fold change /veh LRRC4B (11730491_at) / RFU GIMAP4 (11747438_a_at) / Fold change /veh GIMAP4 (11747438_a_at) / RFU KRT8 (11758183_x_at) / Fold change /veh KRT8 (11758183_x_at) / RFU CNN1 (11734310_a_at) / Fold change /veh CNN1 (11734310_a_at) / RFU VPS37D (11726825_at) / Fold change /veh VPS37D (11726825_at) / RFU C10orf10 (11716522_x_at) / Fold change /veh C10orf10 (11716522_x_at) / RFU KIR2DL2 /// KIR2DL4 /// KIR2DL5A /// KIR2DL5B /// KIR2DS1 /// KIR2DS2 /// KIR2DS3 /// KIR2DS4 /// KIR3DL3 /// KIR3DL3 /// KIR3DS1 (11738374_at) / Fold change /veh KIR2DL2 /// KIR2DL4 /// KIR2DL5A /// KIR2DL5B /// KIR2DS1 /// KIR2DS2 /// KIR2DS3 /// KIR2DS4 /// KIR3DL3 /// KIR3DL3 /// KIR3DS1 (11738374_at) / RFU C1QL1 (11718748_at) / Fold change /veh C1QL1 (11718748_at) / RFU TMPRSS4 (11747572_a_at) / Fold change /veh TMPRSS4 (11747572_a_at) / RFU HAMP (11756126_x_at) / Fold change /veh HAMP (11756126_x_at) / RFU RNFT2 (11725882_a_at) / Fold change /veh RNFT2 (11725882_a_at) / RFU NR4A2 (11747474_a_at) / Fold change /veh NR4A2 (11747474_a_at) / RFU ABCC12 (11746883_a_at) / Fold change /veh ABCC12 (11746883_a_at) / RFU TMEM136 (11760407_x_at) / Fold change /veh TMEM136 (11760407_x_at) / RFU CLDN22 /// WWC2 (11732394_at) / Fold change /veh CLDN22 /// WWC2 (11732394_at) / RFU HLA-DPB1 (11760878_x_at) / Fold change /veh HLA-DPB1 (11760878_x_at) / RFU SPINT1 (11716480_a_at) / Fold change /veh SPINT1 (11716480_a_at) / RFU GAP43 (11754022_s_at) / Fold change /veh GAP43 (11754022_s_at) / RFU A4GNT (11735810_at) / Fold change /veh A4GNT (11735810_at) / RFU PRB3 (11715151_x_at) / Fold change /veh PRB3 (11715151_x_at) / RFU TUBB4B (11761932_at) / Fold change /veh TUBB4B (11761932_at) / RFU CAPN14 (11732068_a_at) / Fold change /veh CAPN14 (11732068_a_at) / RFU TMCC2 (11721928_a_at) / Fold change /veh TMCC2 (11721928_a_at) / RFU IRGQ (11745062_a_at) / Fold change /veh IRGQ (11745062_a_at) / RFU FAM174B (11720279_a_at) / Fold change /veh FAM174B (11720279_a_at) / RFU TMPRSS4 (11748680_a_at) / Fold change /veh TMPRSS4 (11748680_a_at) / RFU FAM212B (11763350_a_at) / Fold change /veh FAM212B (11763350_a_at) / RFU PLEKHG5 (11743358_a_at) / Fold change /veh PLEKHG5 (11743358_a_at) / RFU ZSCAN30 (11745921_a_at) / Fold change /veh ZSCAN30 (11745921_a_at) / RFU CMKLR1 (11741424_a_at) / Fold change /veh CMKLR1 (11741424_a_at) / RFU LOC101060620 /// MAPK8IP1 (11723275_at) / Fold change /veh LOC101060620 /// MAPK8IP1 (11723275_at) / RFU SPTSSB (11747773_x_at) / Fold change /veh SPTSSB (11747773_x_at) / RFU PRSS12 (11739890_at) / Fold change /veh PRSS12 (11739890_at) / RFU BIN1 (11741810_x_at) / Fold change /veh BIN1 (11741810_x_at) / RFU WNT11 (11732464_a_at) / Fold change /veh WNT11 (11732464_a_at) / RFU C10orf10 (11716521_a_at) / Fold change /veh C10orf10 (11716521_a_at) / RFU C5orf56 (11738089_at) / Fold change /veh C5orf56 (11738089_at) / RFU CYB561 (11721691_x_at) / Fold change /veh CYB561 (11721691_x_at) / RFU ANKRD19P (11752326_a_at) / Fold change /veh ANKRD19P (11752326_a_at) / RFU OR2T12 /// OR2T33 /// OR2T8 (11738714_s_at) / Fold change /veh OR2T12 /// OR2T33 /// OR2T8 (11738714_s_at) / RFU VCAN (11748164_a_at) / Fold change /veh VCAN (11748164_a_at) / RFU JSRP1 (11732532_at) / Fold change /veh JSRP1 (11732532_at) / RFU KRTAP10-11 (11738290_x_at) / Fold change /veh KRTAP10-11 (11738290_x_at) / RFU MYO3A (11730013_a_at) / Fold change /veh MYO3A (11730013_a_at) / RFU EBF3 (11725865_a_at) / Fold change /veh EBF3 (11725865_a_at) / RFU CAMK2N1 (11719241_x_at) / Fold change /veh CAMK2N1 (11719241_x_at) / RFU C5orf56 (11738088_a_at) / Fold change /veh C5orf56 (11738088_a_at) / RFU OLFML3 (11715873_a_at) / Fold change /veh OLFML3 (11715873_a_at) / RFU LOC100653217 /// NTM (11731650_a_at) / Fold change /veh LOC100653217 /// NTM (11731650_a_at) / RFU MAPK11 (11762145_a_at) / Fold change /veh MAPK11 (11762145_a_at) / RFU FIZ1 (11724087_x_at) / Fold change /veh FIZ1 (11724087_x_at) / RFU OASL (11726364_x_at) / Fold change /veh OASL (11726364_x_at) / RFU SOX15 (11748057_x_at) / Fold change /veh SOX15 (11748057_x_at) / RFU CD79A (11719716_a_at) / Fold change /veh CD79A (11719716_a_at) / RFU HIST1H1D (11736915_at) / Fold change /veh HIST1H1D (11736915_at) / RFU CASKIN2 (11723855_a_at) / Fold change /veh CASKIN2 (11723855_a_at) / RFU LOC730098 (11760151_x_at) / Fold change /veh LOC730098 (11760151_x_at) / RFU OR4N2 (11742367_at) / Fold change /veh OR4N2 (11742367_at) / RFU PRRT2 (11749266_a_at) / Fold change /veh PRRT2 (11749266_a_at) / RFU SNX32 (11753110_a_at) / Fold change /veh SNX32 (11753110_a_at) / RFU CDHR5 (11726645_a_at) / Fold change /veh CDHR5 (11726645_a_at) / RFU RCAN1 (11760418_a_at) / Fold change /veh RCAN1 (11760418_a_at) / RFU FAM167A (11723789_a_at) / Fold change /veh FAM167A (11723789_a_at) / RFU FAM26E (11764081_at) / Fold change /veh FAM26E (11764081_at) / RFU ISYNA1 (11749810_s_at) / Fold change /veh ISYNA1 (11749810_s_at) / RFU ACY1 (11761880_at) / Fold change /veh ACY1 (11761880_at) / RFU 11764098_at / Fold change /veh 11764098_at / RFU SAMD14 (11745864_x_at) / Fold change /veh SAMD14 (11745864_x_at) / RFU NPB (11741838_a_at) / Fold change /veh NPB (11741838_a_at) / RFU TMPRSS6 (11731388_a_at) / Fold change /veh TMPRSS6 (11731388_a_at) / RFU KRTAP10-2 (11738614_at) / Fold change /veh KRTAP10-2 (11738614_at) / RFU ARHGAP8 /// PRR5-ARHGAP8 (11727945_x_at) / Fold change /veh ARHGAP8 /// PRR5-ARHGAP8 (11727945_x_at) / RFU KRTAP5-7 /// NADSYN1 (11734609_at) / Fold change /veh KRTAP5-7 /// NADSYN1 (11734609_at) / RFU RASL12 (11751679_a_at) / Fold change /veh RASL12 (11751679_a_at) / RFU CDKN2B (11736163_a_at) / Fold change /veh CDKN2B (11736163_a_at) / RFU PRF1 (11729649_at) / Fold change /veh PRF1 (11729649_at) / RFU, ZNF638 /// ZNF638-IT1 / Fold change vs veh, ZNF638 /// ZNF638-IT1 / RFU, PANK3 / Fold change vs veh, PANK3 / RFU, SH3YL1 / Fold change vs veh, SH3YL1 / RFU, ZEB2 / Fold change vs veh, ZEB2 / RFU, NRIP1 / Fold change vs veh, NRIP1 / RFU, PTTG1IP / Fold change vs veh, PTTG1IP / RFU, CAPN2 / Fold change vs veh, CAPN2 / RFU, MED14 / Fold change vs veh, MED14 / RFU, SNORA58 / Fold change vs veh, SNORA58 / RFU, C1orf63 / Fold change vs veh, C1orf63 / RFU, LRRFIP1 / Fold change vs veh, LRRFIP1 / RFU, NDUFAF7 / Fold change vs veh, NDUFAF7 / RFU, SLC12A2 / Fold change vs veh, SLC12A2 / RFU, IBTK / Fold change vs veh, IBTK / RFU, ESF1 / Fold change vs veh, ESF1 / Fold change vs veh, TMEM50B / RFU, TAOK1 / Fold change vs veh, TAOK1 / RFU, ACBD3 / Fold change vs veh, ACBD3 / RFU, TMA16 / Fold change vs veh, TMA16 / RFU, RWDD3 / Fold change vs veh, RWDD3 / RFU, BCAT1 / Fold change vs veh, BCAT1 / RFU, EDEM3 / Fold change vs veh, EDEM3 / RFU, TMEM33 / Fold change vs veh, TMEM33 / RFU, WDR75 / Fold change vs veh, WDR75 / RFU, AHCTF1 / Fold change vs veh, AHCTF1 / RFU, TFRC / Fold change vs veh, TFRC / RFU, ZDHHC17 / Fold change vs veh, ZDHHC17 / RFU, NOM1 / Fold change vs veh, NOM1 / RFU, ARL8B / Fold change vs veh, ARL8B / RFU, ZBTB11 / Fold change vs veh, ZBTB11 / RFU, TAMM41 / Fold change vs veh, TAMM41 / RFU, KIAA1704 /// LOC100996395 / Fold change vs veh, KIAA1704 /// LOC100996395 / RFU, ING1 / Fold change vs veh, ING1 / RFU, TRMT61B / Fold change vs veh, TRMT61B / RFU, FUBP3 / Fold change vs veh, FUBP3 / RFU, TP53 / Fold change vs veh, TP53 / RFU, TNKS2 / Fold change vs veh, TNKS2 / RFU, ZFP14 / Fold change vs veh, ZFP14 / RFU, ACTR2 / Fold change vs veh, ACTR2 / RFU, PPP3R1 / Fold change vs veh, PPP3R1 / RFU, PIK3R1 / Fold change vs veh, PIK3R1 / RFU, HNRNPA1 / Fold change vs veh, HNRNPA1 / RFU, RNF170 / Fold change vs veh, RNF170 / RFU, ZNF28 / Fold change vs veh, ZNF28 / RFU, RNGTT / Fold change vs veh, RNGTT / RFU, OGT / Fold change vs veh, OGT / RFU, BRD1 / Fold change vs veh, BRD1 / RFU, MARS / Fold change vs veh, MARS / RFU, ZNF655 / Fold change vs veh, ZNF655 / RFU, FAHD1 / Fold change vs veh, FAHD1 / RFU, BDP1 / Fold change vs veh, BDP1 / RFU, LRRCC1 / Fold change vs veh, LRRCC1 / RFU, ARID1A / Fold change vs veh, ARID1A / RFU, ZNF146 / Fold change vs veh, ZNF146 / RFU, ZNF330 / Fold change vs veh, ZNF330 / RFU, GPN3 / Fold change vs veh, GPN3 / RFU, C9orf123 / Fold change vs veh, C9orf123 / RFU, N4BP2L2 / Fold change vs veh, N4BP2L2 / RFU, ARFIP1 / Fold change vs veh, ARFIP1 / RFU, FAM179B / Fold change vs veh, FAM179B / RFU, BCL10 / Fold change vs veh, BCL10 / RFU, UHRF1BP1L / Fold change vs veh, UHRF1BP1L / RFU, BET1 / Fold change vs veh, BET1 / RFU, CNOT2 / Fold change vs veh, CNOT2 / RFU, ZNF268 / Fold change vs veh, ZNF268 / Fold change vs veh, ZNF507 / RFU, DGCR2 / Fold change vs veh, DGCR2 / RFU, WDSUB1 / Fold change vs veh, WDSUB1 / Fold change vs veh, HSP90B1 /// MIR3652 / RFU, ADSS / Fold change vs veh, ADSS / RFU, GK / Fold change vs veh, GK / RFU, ZNF148 / Fold change vs veh, ZNF148 / RFU, TAF9 / Fold change vs veh, TAF9 / RFU, SLC1A5 / Fold change vs veh, SLC1A5 / RFU, SLMO2 / Fold change vs veh, SLMO2 / RFU, ABCC4 / Fold change vs veh, ABCC4 / RFU, LOC101060439 /// RAP1B / Fold change vs veh, LOC101060439 /// RAP1B / RFU, RFX7 / Fold change vs veh, RFX7 / RFU, GTPBP10 / Fold change vs veh, GTPBP10 / RFU, CNEP1R1 / Fold change vs veh, CNEP1R1 / RFU, BIVM-ERCC5 /// ERCC5 / Fold change vs veh, BIVM-ERCC5 /// ERCC5 / RFU, ILF3 / Fold change vs veh, ILF3 / RFU 11762660_at / Fold change /veh 11762660_at / RFU VCAN (11757783_s_at) / Fold change /veh VCAN (11757783_s_at) / RFU DDX43 (11728927_at) / Fold change /veh DDX43 (11728927_at) / RFU KRT8 (11758188_x_at) / Fold change /veh KRT8 (11758188_x_at) / RFU NKD1 (11759106_at) / Fold change /veh NKD1 (11759106_at) / RFU SRD5A1 (11742802_a_at) / Fold change /veh SRD5A1 (11742802_a_at) / RFU TPSAB1 /// TPSB2 (11721975_s_at) / Fold change /veh TPSAB1 /// TPSB2 (11721975_s_at) / RFU GSTM3 (11746129_a_at) / Fold change /veh GSTM3 (11746129_a_at) / RFU IL23R (11737362_x_at) / Fold change /veh IL23R (11737362_x_at) / RFU TMEM51 (11727254_a_at) / Fold change /veh TMEM51 (11727254_a_at) / RFU PIWIL2 (11732686_x_at) / Fold change /veh PIWIL2 (11732686_x_at) / RFU ORM1 (11744905_x_at) / Fold change /veh ORM1 (11744905_x_at) / RFU CCDC152 (11743942_at) / Fold change /veh CCDC152 (11743942_at) / RFU ECM1 (11717891_a_at) / Fold change /veh ECM1 (11717891_a_at) / RFU IL23R (11748794_a_at) / Fold change /veh IL23R (11748794_a_at) / RFU TNFAIP8L3 (11732012_x_at) / Fold change /veh TNFAIP8L3 (11732012_x_at) / RFU MBOAT4 (11741988_at) / Fold change /veh MBOAT4 (11741988_at) / RFU 11764193_at / Fold change /veh 11764193_at / RFU TMEM53 (11763286_at) / Fold change /veh TMEM53 (11763286_at) / RFU MAGEB2 (11727129_at) / Fold change /veh MAGEB2 (11727129_at) / RFU TMEM200A (11744735_a_at) / Fold change /veh TMEM200A (11744735_a_at) / RFU CCDC152 (11751479_a_at) / Fold change /veh CCDC152 (11751479_a_at) / RFU FAM211A (11726209_a_at) / Fold change /veh FAM211A (11726209_a_at) / RFU RGS16 (11746705_a_at) / Fold change /veh RGS16 (11746705_a_at) / RFU VCAN (11755009_s_at) / Fold change /veh VCAN (11755009_s_at) / RFU RHOB (11743442_s_at) / Fold change /veh RHOB (11743442_s_at) / RFU RGS16 (11720943_a_at) / Fold change /veh RGS16 (11720943_a_at) / RFU RGS16 (11720944_at) / Fold change /veh RGS16 (11720944_at) / RFU, VPS4B / Fold change vs veh, VPS4B / RFU, CREB1 / Fold change vs veh, CREB1 / RFU, DNAJC13 / Fold change vs veh, DNAJC13 / RFU, GNAQ / Fold change vs veh, GNAQ / RFU, CDK5R1 / Fold change vs veh, CDK5R1 / RFU, ZRANB3 / Fold change vs veh, ZRANB3 / RFU, CUL4A / Fold change vs veh, CUL4A / RFU, CCNY / Fold change vs veh, CCNY / RFU, UFL1 / Fold change vs veh, UFL1 / RFU, COG3 / Fold change vs veh, COG3 / RFU, DIAPH2 / Fold change vs veh, DIAPH2 / RFU, SKA2 / Fold change vs veh, SKA2 / RFU, AFF3 / Fold change vs veh, AFF3 / RFU, LMF1 / Fold change vs veh, LMF1 / RFU, IPO11 / Fold change vs veh, IPO11 / RFU, DFFB / Fold change vs veh, DFFB / RFU, FOXP1 / Fold change vs veh, FOXP1 / RFU, CARD8 / Fold change vs veh, CARD8 / RFU, STRN3 / Fold change vs veh, STRN3 / RFU, ADK / Fold change vs veh, ADK / RFU, RASSF2 / Fold change vs veh, RASSF2 / RFU, WIPF1 / Fold change vs veh, WIPF1 / RFU, LARP1B / Fold change vs veh, LARP1B / RFU, RASA1 / Fold change vs veh, RASA1 / RFU, RB1 / Fold change vs veh, RB1 / RFU, PPFIA1 / Fold change vs veh, PPFIA1 / RFU, MAT2A / Fold change vs veh, MAT2A / RFU, CCT5 / Fold change vs veh, CCT5 / RFU, WDR92 / Fold change vs veh, WDR92 / RFU, CUX1 / Fold change vs veh, CUX1 / RFU, TTC7A / Fold change vs veh, TTC7A / RFU, TMEM135 / Fold change vs veh, TMEM135 / RFU, DEPTOR / Fold change vs veh, DEPTOR / RFU, CPM / Fold change vs veh, CPM / RFU, DNAJB6 / Fold change vs veh, DNAJB6 / RFU, CACNA2D3 / Fold change vs veh, CACNA2D3 / RFU, DTX4 / Fold change vs veh, DTX4 / RFU, TFCP2 / Fold change vs veh, TFCP2 / RFU, GMCL1 /// GMCL1P1 / Fold change vs veh, GMCL1 /// GMCL1P1 / RFU, AEBP2 / Fold change vs veh, AEBP2 / RFU, SNHG1 /// SNORD22 /// SNORD25 /// SNORD26 /// SNORD27 /// SNORD28 /// SNORD29 /// SNORD31 / Fold change vs veh, SNHG1 /// SNORD22 /// SNORD25 /// SNORD26 /// SNORD27 /// SNORD28 /// SNORD29 /// SNORD31 / Fold change (Aza/veh), C12orf56 (ProbeSet 11735607_a_at) / Fold change (ACY-1035/veh), C12orf56 (ProbeSet 11735607_a_at) / Fold change (Aza/veh), FGFR1OP (ProbeSet 11751329_s_at) / Fold change (ACY-1035/veh), FGFR1OP (ProbeSet 11751329_s_at) / Fold change (Aza/veh), VPS36 (ProbeSet 11739960_a_at) / Fold change (ACY-1035/veh), VPS36 (ProbeSet 11739960_a_at) / RFU SYPL1 (11715823_x_at) / Fold change /veh SYPL1 (11715823_x_at) / RFU IGFBP7 (11715501_s_at) / Fold change /veh IGFBP7 (11715501_s_at) / RFU REEP3 (11722064_at) / Fold change /veh REEP3 (11722064_at) / RFU IGLL1 (11728026_x_at) / Fold change /veh IGLL1 (11728026_x_at): dose or concentration left out as unconfirmed
Conditions: ProbeSet 11756954_s_at; LIST B

SMILES: Nc1ncn([C@@H]2O[C@H](CO)[C@@H](O)[C@H]2O)c(=O)n1 [azacitidine]
- RFU, ZEB2: 1324.44 RFU
